Results on 21 substances are retold here after the OligoGym collection.

HELM strings list units from the 5' end as sugar, base in round brackets, then linkage (d deoxyribose, r ribose, m 2'-O-methyl, p phosphodiester). Strings are as the collection lists them; they lack the last nucleoside at the 3' end of the tested compound. [moe] = 2'-O-(2-methoxyethyl) (MOE); [sp] = phosphorothioate linkage; [m5C] = 5-methylcytosine

In this data set the target is C9ORF72. In words: mouse, dose not given. Particulars: ASO.
In turn, “RNA1{[moe]([m5C])[sp].[moe](T)p.[moe](G)p.[moe]([m5C])p.d(G)[sp].d(A)[sp].d(T)[sp].d([m5C])[sp].d([m5C])[sp].d([m5C])[sp].d([m5C])[sp].d(A)[sp].d(T)[sp].d(T)[sp].[moe]([m5C])p.[moe]([m5C])p.[moe](A)p.[moe](G)[sp].[moe](T)}$$$$ (last 3' nucleoside missing)” came in with a 3 h FOB score of 1.75 score 0-7.

Consider “RNA1{[moe]([m5C])[sp].[moe](T)p.[moe](G)p.d(G)[sp].d(T)[sp].d(T)[sp].d(A)[sp].d(A)[sp].d(T)[sp].d([m5C])[sp].d(T)[sp].d(T)[sp].d(T)[sp].[moe](A)p.[moe](T)p.[moe]([m5C])p.[moe](A)p.[moe](G)[sp].[moe](G)}$$$$ (last 3' nucleoside missing)”, for which the 3 h FOB score was 0 score 0-7.

“RNA1{[moe]([m5C])[sp].[moe](T)p.[moe](G)p.d([m5C])[sp].d(G)[sp].d(A)[sp].d(T)[sp].d([m5C])[sp].d([m5C])[sp].d([m5C])[sp].d([m5C])[sp].d(A)[sp].d(T)[sp].[moe](T)p.[moe]([m5C])p.[moe]([m5C])p.[moe](A)p.[moe](G)[sp].[moe](T)}$$$$ (last 3' nucleoside missing)” registered a 3 h FOB score of 1.75 score 0-7.

Substance “RNA1{[moe]([m5C])[sp].[moe]([m5C])[sp].[moe]([m5C])[sp].[moe](G)[sp].[moe](G)[sp].d([m5C])[sp].d([m5C])[sp].d([m5C])[sp].d([m5C])[sp].d(T)[sp].d(A)[sp].d(G)[sp].d([m5C])[sp].d(G)[sp].d([m5C])[sp].[moe](G)[sp].[moe]([m5C])[sp].[moe](G)[sp].[moe](A)}$$$$ (last 3' nucleoside missing)” gave a 3 h FOB score of 6 score 0-7.

“RNA1{[moe]([m5C])[sp].[moe]([m5C])p.[moe](G)p.[moe](G)p.[moe]([m5C])p.[moe]([m5C])p.[moe]([m5C])p.d([m5C])[sp].d(T)[sp].d(A)[sp].d(G)[sp].d([m5C])[sp].d(G)[sp].d([m5C])[sp].d(G)[sp].d([m5C])[sp].d(G)[sp].[moe](A)[sp].[moe]([m5C])}$$$$ (last 3' nucleoside missing)” registered a 3 h FOB score of 2 score 0-7.

“RNA1{[moe]([m5C])[sp].[moe]([m5C])p.[moe](G)p.[moe](G)p.[moe]([m5C])p.[moe]([m5C])p.d([m5C])[sp].d([m5C])[sp].d(T)[sp].d(A)[sp].d(G)[sp].d([m5C])[sp].d(G)[sp].d([m5C])[sp].d(G)[sp].[moe]([m5C])p.[moe](G)[sp].[moe](A)}$$$$ (last 3' nucleoside missing)” yielded a 3 h FOB score of 5.75 score 0-7.

As to “RNA1{[moe]([m5C])[sp].[moe]([m5C])p.[moe](G)p.[moe](G)p.[moe]([m5C])p.[moe]([m5C])p.d([m5C])[sp].d([m5C])[sp].d(T)[sp].d(A)[sp].d(G)[sp].d([m5C])[sp].d(G)[sp].d([m5C])[sp].d(G)[sp].d([m5C])[sp].[moe](G)p.[moe](A)[sp].[moe]([m5C])}$$$$ (last 3' nucleoside missing)”, the 3 h FOB score is 3.5 score 0-7.

“RNA1{[moe]([m5C])[sp].[moe]([m5C])p.[moe](G)p.[moe](G)p.[moe]([m5C])p.d([m5C])[sp].d([m5C])[sp].d([m5C])[sp].d(T)[sp].d(A)[sp].d(G)[sp].d([m5C])[sp].d(G)[sp].d([m5C])[sp].[moe](G)p.[moe]([m5C])p.[moe](G)[sp].[moe](A)}$$$$ (last 3' nucleoside missing)” showed a 3 h FOB score of 4.5 score 0-7.

For “RNA1{[moe]([m5C])[sp].[moe]([m5C])p.[moe](G)p.[moe](G)p.d([m5C])[sp].d([m5C])[sp].d([m5C])[sp].d([m5C])[sp].d(T)[sp].d(A)[sp].d(G)[sp].d([m5C])[sp].d(G)[sp].[moe]([m5C])p.[moe](G)p.[moe]([m5C])p.[moe](G)[sp].[moe](A)}$$$$ (last 3' nucleoside missing)”, the 3 h FOB score is 6 score 0-7.

With “RNA1{[moe]([m5C])[sp].[moe]([m5C])p.[moe](G)p.[moe](G)p.d([m5C])[sp].d([m5C])[sp].d([m5C])[sp].d([m5C])[sp].d(T)[sp].d(A)[sp].d(G)[sp].d([m5C])[sp].d(G)[sp].d([m5C])[sp].[moe](G)p.[moe]([m5C])p.[moe](G)p.[moe](A)[sp].[moe]([m5C])}$$$$ (last 3' nucleoside missing)”, the 3 h FOB score was determined as 4.25 score 0-7.

The substance “RNA1{[moe]([m5C])[sp].[moe]([m5C])p.[moe](G)p.d(G)[sp].d([m5C])[sp].d([m5C])[sp].d([m5C])[sp].d([m5C])[sp].d(T)[sp].d(A)[sp].d(G)[sp].d([m5C])[sp].d(G)[sp].[moe]([m5C])p.[moe](G)p.[moe]([m5C])p.[moe](G)p.[moe](A)[sp].[moe]([m5C])}$$$$ (last 3' nucleoside missing)” returned a 3 h FOB score of 3.25 score 0-7.

As for “RNA1{[moe]([m5C])[sp].[moe]([m5C])p.[moe](T)p.[moe](A)[sp].d(G)[sp].d([m5C])[sp].d(G)[sp].d([m5C])[sp].d(G)[sp].d([m5C])[sp].d(G)[sp].d(A)[sp].[moe]([m5C])p.[moe](T)p.[moe]([m5C])p.[moe]([m5C])[sp].[moe](T)}$$$$ (last 3' nucleoside missing)”, the 3 h FOB score amounted to 3 score 0-7.

Take “RNA1{[moe]([m5C])[sp].[moe]([m5C])p.[moe](T)p.[moe](A)p.[moe](G)p.[moe]([m5C])[sp].d(G)[sp].d([m5C])[sp].d(G)[sp].d([m5C])[sp].d(G)[sp].d(A)[sp].d([m5C])[sp].d(T)[sp].[moe]([m5C])p.[moe]([m5C])[sp].[moe](T)}$$$$ (last 3' nucleoside missing)”: the 3 h FOB score was 6 score 0-7.

For “RNA1{[moe]([m5C])[sp].[moe]([m5C])p.[moe]([m5C])p.[moe](T)[sp].d(A)[sp].d(G)[sp].d([m5C])[sp].d(G)[sp].d([m5C])[sp].d(G)[sp].d([m5C])[sp].d(G)[sp].[moe](A)p.[moe]([m5C])p.[moe](T)p.[moe]([m5C])[sp].[moe]([m5C])}$$$$ (last 3' nucleoside missing)”, the 3 h FOB score was 1 score 0-7.

For “RNA1{[moe]([m5C])[sp].[moe]([m5C])p.[moe]([m5C])p.[moe](T)p.[moe](A)p.[moe](G)[sp].d([m5C])[sp].d(G)[sp].d([m5C])[sp].d(G)[sp].d([m5C])[sp].d(G)[sp].d(A)[sp].d([m5C])[sp].[moe](T)p.[moe]([m5C])[sp].[moe]([m5C])}$$$$ (last 3' nucleoside missing)”, the 3 h FOB score came to 3 score 0-7.

As to “RNA1{[moe]([m5C])[sp].[moe]([m5C])p.[moe]([m5C])p.[moe](T)p.[moe](A)p.[moe](G)p.d([m5C])[sp].d(G)[sp].d([m5C])[sp].d(G)[sp].d([m5C])[sp].d(G)[sp].d(A)[sp].d([m5C])[sp].d(T)[sp].d([m5C])[sp].[moe]([m5C])p.[moe](T)[sp].[moe](G)}$$$$ (last 3' nucleoside missing)”, the 3 h FOB score is 1.25 score 0-7.

For “RNA1{[moe]([m5C])[sp].[moe]([m5C])p.[moe]([m5C])p.[moe](T)p.d(A)[sp].d(G)[sp].d([m5C])[sp].d(G)[sp].d([m5C])[sp].d(G)[sp].d([m5C])[sp].d(G)[sp].d(A)[sp].d([m5C])[sp].[moe](T)p.[moe]([m5C])p.[moe]([m5C])p.[moe](T)[sp].[moe](G)}$$$$ (last 3' nucleoside missing)”, the 3 h FOB score turned out to be 1.75 score 0-7.

“RNA1{[moe]([m5C])[sp].[moe]([m5C])p.[moe]([m5C])p.[moe]([m5C])[sp].d(T)[sp].d(A)[sp].d(G)[sp].d([m5C])[sp].d(G)[sp].d([m5C])[sp].d(G)[sp].d([m5C])[sp].[moe](G)p.[moe](A)p.[moe]([m5C])p.[moe](T)[sp].[moe]([m5C])}$$$$ (last 3' nucleoside missing)” registered a 3 h FOB score of 1 score 0-7.

“RNA1{[moe]([m5C])[sp].[moe]([m5C])p.[moe]([m5C])p.[moe]([m5C])p.[moe](T)p.[moe](A)[sp].d(G)[sp].d([m5C])[sp].d(G)[sp].d([m5C])[sp].d(G)[sp].d([m5C])[sp].d(G)[sp].d(A)[sp].[moe]([m5C])p.[moe](T)[sp].[moe]([m5C])}$$$$ (last 3' nucleoside missing)” displayed a 3 h FOB score of 2 score 0-7.

Take “RNA1{[moe]([m5C])[sp].[moe]([m5C])p.[moe]([m5C])p.[moe]([m5C])p.[moe](T)p.[moe](A)p.d(G)[sp].d([m5C])[sp].d(G)[sp].d([m5C])[sp].d(G)[sp].d([m5C])[sp].d(G)[sp].d(A)[sp].d([m5C])[sp].d(T)[sp].[moe]([m5C])p.[moe]([m5C])[sp].[moe](T)}$$$$ (last 3' nucleoside missing)”: the 3 h FOB score is 6 score 0-7.

Substance “RNA1{[moe]([m5C])[sp].[moe]([m5C])p.[moe]([m5C])p.[moe]([m5C])p.d(T)[sp].d(A)[sp].d(G)[sp].d([m5C])[sp].d(G)[sp].d([m5C])[sp].d(G)[sp].d([m5C])[sp].d(G)[sp].d(A)[sp].[moe]([m5C])p.[moe](T)p.[moe]([m5C])p.[moe]([m5C])[sp].[moe](T)}$$$$ (last 3' nucleoside missing)” had a 3 h FOB score of 3.75 score 0-7.
